In patent publication US6291482A, “N-hydroxyurea derivative and pharmaceutical composition containing the same” (Nikken Chemicals Co., LTD, priority 1997, dated 2001):
Counter-ions that a name gives are not always drawn.

How the values were obtained:
5-lipoxygenase = target: T1, 5-lipoxygenase (Rattus norvegicus, UniProt P12527); assay: Lipoxygenase inhibitory activity ex vivo (leukotriene B4 in blood after oral administration); settings: 1 h, SD male rats, one hour before blood sampling, read-out: LTBI ED50 (50% inhibitory amount)
T1 construct: from tissue; host or cells: whole blood of male SD rats
T1 sequence (P12527 1-673): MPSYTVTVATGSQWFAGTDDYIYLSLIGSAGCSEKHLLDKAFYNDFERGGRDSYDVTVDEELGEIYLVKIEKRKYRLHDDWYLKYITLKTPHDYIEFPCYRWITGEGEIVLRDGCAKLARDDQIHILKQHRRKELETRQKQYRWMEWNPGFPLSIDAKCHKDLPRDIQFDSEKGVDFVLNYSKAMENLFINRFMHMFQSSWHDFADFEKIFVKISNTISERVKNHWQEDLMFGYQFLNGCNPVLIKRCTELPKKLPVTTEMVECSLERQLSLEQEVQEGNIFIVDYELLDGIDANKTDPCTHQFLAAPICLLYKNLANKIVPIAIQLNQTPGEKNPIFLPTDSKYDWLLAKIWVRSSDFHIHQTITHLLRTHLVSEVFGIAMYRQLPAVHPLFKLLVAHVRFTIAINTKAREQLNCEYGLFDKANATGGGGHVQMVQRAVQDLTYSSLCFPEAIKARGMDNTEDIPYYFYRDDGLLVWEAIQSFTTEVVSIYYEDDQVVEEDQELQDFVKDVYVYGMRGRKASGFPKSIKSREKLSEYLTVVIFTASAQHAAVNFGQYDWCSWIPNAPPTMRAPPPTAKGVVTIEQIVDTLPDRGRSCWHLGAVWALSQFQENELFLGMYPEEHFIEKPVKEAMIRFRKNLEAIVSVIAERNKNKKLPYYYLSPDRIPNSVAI
Description: (§1) (Measurement of Lipoxygenase Inhibitory Activity and Thromboxane Synthase Inhibitory Activity in Ex Vivo)
(§2) For the test animals, SD male rats were used. These were made to fast from the day before the test. The test drug was suspended in 0.5% sodium carboxymethylcellulose and orally administered one hour before the blood was taken. The blood was taken from the abdominal aorta and divided for the measurement of the thromboxane synthase inhibitory activity and the 5-lipoxygenase inhibitory activity.
The 5-lipoxygenase activity was shown using as an indicator the amount of production of leukotriene B4. 50 μM calcium ionophor (A-23187) was added to the divided blood to start the reaction (37° C., 30 minutes), and 1 mM Indomethacin, 1 mM Phenidone, and 0.1 mM EGTA were added to stop the reaction. The plasma was centrifuged (3000 rpm, 20 minutes, 4° C.) and the leukotriene B4 in the plasma was measured by the EIA method.

thromboxane synthase [1] = target: T2, thromboxane synthase (Rattus norvegicus, UniProt P49430); assay: Thromboxane synthase inhibitory activity ex vivo (thromboxane B2 in serum after oral administration); settings: 1 h, SD male rats, one hour before blood sampling, read-out: TxSI ED50 (50% inhibitory amount)
T2 construct: The divided blood was allowed to naturally coagulate; from tissue; host or cells: whole blood of male SD rats, allowed to clot
T2 sequence (P49430 1-533): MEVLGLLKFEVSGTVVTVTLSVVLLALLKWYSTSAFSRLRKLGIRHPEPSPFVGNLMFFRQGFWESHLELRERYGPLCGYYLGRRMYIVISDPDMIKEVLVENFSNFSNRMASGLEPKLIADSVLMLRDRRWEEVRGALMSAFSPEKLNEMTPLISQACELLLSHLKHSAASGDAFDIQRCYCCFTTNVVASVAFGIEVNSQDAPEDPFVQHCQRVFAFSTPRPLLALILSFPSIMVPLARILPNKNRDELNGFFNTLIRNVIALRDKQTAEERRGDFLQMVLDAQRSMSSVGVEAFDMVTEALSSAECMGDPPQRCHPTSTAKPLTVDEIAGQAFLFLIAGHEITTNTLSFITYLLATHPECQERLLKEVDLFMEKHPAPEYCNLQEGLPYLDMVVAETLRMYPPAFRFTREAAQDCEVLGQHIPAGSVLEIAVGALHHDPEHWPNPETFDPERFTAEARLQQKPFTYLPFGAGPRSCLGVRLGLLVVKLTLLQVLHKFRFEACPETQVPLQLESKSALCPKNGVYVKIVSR
Description: as §1, §2
On the other hand, the thromboxane synthase activity was shown using as an indicator the amount of production of the thromboxane A2 stable metabolite thromboxane B2. The divided blood was allowed to naturally coagulate (25° C., 90 minutes) and then the serum was centrifuged (3000 rpm, 20 minutes, 4° C.) and the amount of thromboxane B2 in the serum was measured by the EIA method.

[2] = system: antigen-induced bronchoconstriction; assay: Antigen-induced bronchoconstriction model of guinea pig (Konzett-Rossler method); type: in vivo; settings: 2 hours after administration, ovalbumin-sensitized guinea pigs
Procedure: (Pharmacological Activity on Antigen-Induced Bronchoconstriction Model of Guinea Pig)
Guinea pigs sensitized by ovalbumin were used and orally administered with the test compound suspended in 5% gum arabic. The activity for inhibiting antigen-induced bronchoconstriction after 2 hours after administration was measured by the Konzett-Rossler method.
Each of the sensitized guinea pigs (i.e., 5-7 pigs in one group) was anesthesized by 35 mg/kg pentobarbital, a cannula was inserted into the respiratory tract and connected to an artificial respirator, a cannula was inserted into the jugular vein, and treatment was performed by 5 mg/kg suxamethonium and 5 mg/kg mepyramine. Next, the guinea pig was inhaled a nebulized ovalbumin to cause bronchoconstriction and the activity in inhibiting bronchoconstriction was found from the ratio of the amount of overflow volume to the detector to the amount of air blown volume from the artificial respirator.
As the test compound, the present Compound (I) were used, and as the control, the above compound (A) and the thromboxane synthase inhibitor ozagrel hydrochloride (OKY-046) were used.

thromboxane synthase [3] = target: T3, thromboxane synthase (Homo sapiens, UniProt P24557); assay: Test of thromboxane synthase inhibitory activity in vitro (thromboxane B2 production, platelet microsomes); type: biochemical; settings: prostaglandin H2 substrate, read-out: TxSI IC50 (inhibition of production of thromboxane B2)
T3 construct: Human platelet microsomes were used; from tissue; host or cells: human platelet microsomes
T3 sequence (P24557 1-533): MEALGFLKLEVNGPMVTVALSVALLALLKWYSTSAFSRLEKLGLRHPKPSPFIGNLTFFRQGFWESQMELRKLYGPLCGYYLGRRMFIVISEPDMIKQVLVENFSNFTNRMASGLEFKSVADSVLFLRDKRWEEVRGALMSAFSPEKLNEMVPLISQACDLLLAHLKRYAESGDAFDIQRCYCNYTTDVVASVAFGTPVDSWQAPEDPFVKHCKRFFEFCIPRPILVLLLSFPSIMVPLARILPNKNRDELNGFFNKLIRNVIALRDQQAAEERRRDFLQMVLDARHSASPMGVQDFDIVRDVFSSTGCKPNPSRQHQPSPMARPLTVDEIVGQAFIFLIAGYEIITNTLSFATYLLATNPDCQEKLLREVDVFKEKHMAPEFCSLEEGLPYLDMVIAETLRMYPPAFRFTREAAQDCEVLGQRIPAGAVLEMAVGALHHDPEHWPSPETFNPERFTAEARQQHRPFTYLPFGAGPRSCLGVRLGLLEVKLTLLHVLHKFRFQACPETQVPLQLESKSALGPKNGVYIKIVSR
Procedure: (Test of Thromboxane Synthase Inhibitory Activity in In Vitro)
Human platelet microsomes were used and a test performed using as an indicator the amount of production of the thromboxane A2 stable metabolite thromboxane B2. A buffer solution (20 mM tris-HCl buffer solution, 1 mM EDTA, pH 7.5) containing human platelet microsomes (50 μg protein/ml) and the test compound (final concentration of 10^-6 M) was stirred, then incubated at 0° C. for 30 minutes, followed by adding prostaglandin H2 (100 ng/2 μl ). This was made acidic to stop the reaction, then neutralized with 1M Tris-base, then centrifuged at 3000 rpm for 20 minutes. The amount of the thromboxane B2 in the supernatant was measured by the EIA method (Cayman Co. kit).
(§3) As the test compound, the compound (I) was used for the test.

lipoxygenase = target: T4, lipoxygenase (Rattus norvegicus, UniProt P12527); assay: Test of lipoxygenase inhibitory activity in vitro (leukotriene B4 production in polymorphonuclear leukocytes); type: cell-based; settings: calcium ionophore A-23187, read-out: LTBI IC50 (inhibition of the production of leukotriene B4)
T4 construct: the peritoneal cavities were lavaged and the polymorphonuclear leukocytes were recovered; endogenous in cells; host or cells: peritoneal polymorphonuclear leukocytes of male SD rats (casein-elicited)
T4 sequence (P12527 1-673): T1 sequence (P12527 1-673)
Procedure: (Test of Lipoxygenase Inhibitory Activity in In Vitro)
Using rat polymorphonuclear leukocytes, a test was conducted using as an indicator the amount of production of leukotriene B4. SD male rats (Japan Clea) were intraperitoneally administered with 12% sodium casein. After 16 hours, the peritoneal cavities were lavaged and the polymorphonuclear leukocytes were recovered. The polymorphonuclear leukocytes thus obtained were suspended in a phosphate buffer (137 mM NaCl, 3 mM KCl, 8 mM Na2 HPO4, 2 mM KH2 PO4) (2.5×10^5 cells/0.4 ml), then the test compound (final concentration 10^-5 M) was added and incubation performed for 10 minutes at 37° C. then a calcium solution (10 mM CaCl2, 0.86% NaCl) 0.1 ml was added and incubation performed for 5 minutes, then 1.25 μl of calcium ionophore (20 μM, A-23187) was added and the reaction started. Five minutes after the addition, 250 μl of methanol was added to stop the reaction. After the reaction was stopped, the result was centrifuged for 20 minutes (4° C., 3000 rpm), then the amount of leukotriene B4 in the supernatant was measured by the EIA method (Cayman Co. kit).
as §3

ED50 (5-lipoxygenase) [mg/kg] | ED50 (thromboxane synthase [1]) [mg/kg] | SMILES | Suppression rate of respiratory constriction ([2]; 100 mg/kg oral) [%] | IC50 (thromboxane synthase [3]) [nM] | IC50 (lipoxygenase) [nM] | Suppression rate of respiratory constriction ([2]; 50 mg/kg oral) [%]
9 | > 10 | NC(=O)N(O)CC1=Cc2cc(OCc3cccnc3)ccc2OC1 [(B)] |  |  |  | 
1.7 | > 30 | NC(=O)N(O)CC1=Cc2cc(Oc3ccccc3)ccc2OC1 [Compound (A)] | 26 |  |  | 
 |  | O=C(O)/C=C/c1ccc(Cn2ccnc2)cc1 [OKY-046, ozagrel hydrochloride] | 42 |  |  | 

SMILES | ED50 (5-lipoxygenase) [mg/kg] | ED50 (thromboxane synthase [1]) [mg/kg] | Suppression rate of respiratory constriction ([2]; 100 mg/kg oral) [%] | IC50 (thromboxane synthase [3]) [nM] | IC50 (lipoxygenase) [nM] | Suppression rate of respiratory constriction ([2]; 50 mg/kg oral) [%]
NC(=O)N(O)CC1=Cc2cc(Cc3cccnc3)ccc2OC1 [Compound (I), N-hydroxy-N-[6-(3-pyridylmethyl)-2H-1-benzopyran-3-ylmethyl]urea] | 1.7 | 1.5 |  | 300 | 200 | 75
